# Experimental data: paper PMC6592956, “Characterization of Porcine Hepatic and Intestinal Drug Metabolizing CYP450: Comparison with Human Orthologues from A Quantitative, Activity and Selectivity Perspective” (Scientific Reports, 2019)
# Marks after values point to notes of the source that are not given here.
# Columns and labels:
# [1] = tested on: porcine intestinal CYP450 enzymes
# Method: (§2) Intestinal microsomes were incubated as described above for hepatic microsomes. […] Each activity measurement (hepatic and intestinal) was performed in triplicate and data are present [...
# porcine CYP450 = settings: outcome of general decision tree, Figure 4
# [2] = tested on: hepatic CYP450 abundancies; assay: Pearson correlation between hepatic CYP450 abundancies and probe activities
# CYP2C [3] = tested on: T1, CYP2C; assay: Group mean of log10 Km (Km in µM) for porcine hepatic microsomes from 8 male pigs, probe metabolism at 37 °C, LC-MS/MS.; format: biochemical, pig liver microsomes; settings: n = 8
# T1 construct: native enzymes in hepatic or duodenal microsomes
# CYP2C [4] = tested on: T1, CYP2C; assay: Group mean of log10 Km (Km in µM) for porcine hepatic microsomes from 8 female pigs, probe metabolism at 37 °C, LC-MS/MS.; format: biochemical, pig liver microsomes; settings: n = 8
# [5] = tested on: porcine intestinal CYP450 enzymes; assay: in vitro; settings: pig, duodenal microsomes
# Method: as §2
# CYP2C9/19 = settings: cited from earlier work
# Method: (§1) The inhibitors used were α-NFV, 8-MPS, KET, SFZ, QND, and DDC for CYP1A/2 A, CYP2A, CYP3A, CYP2C, CYP2D, and CYP2E1, respectively. […] All incubations were performed in triplicate.
# CYP2E = assay: Incubation with inhibitors: CZ-hydroxylation in porcine hepatic microsomes; format: in vitro ADME, conventional pig
# Method: as §1
# CYP2A = assay: Incubation with inhibitors: CM-hydroxylation in porcine hepatic microsomes; format: in vitro ADME, conventional pig
# Method: as §1
# CYP3A = assay: Incubation with inhibitors: MDZ-hydroxylation in porcine hepatic microsomes; format: in vitro ADME, conventional pig; settings: MDZ 20 µM; inhibitors SFZ 0.5, α-NFV 0.1 (1 µM), QND 0.1, KET 0.3, DDC 20, 8-MPS 1 µM; mean (SD) of 3
# Method: as §1
# CYP1A = assay: Incubation with inhibitors: PH-O-deethylation in porcine hepatic microsomes; format: in vitro ADME, conventional pig
# Method: as §1
# CYP2D = molecular target: T2, CYP2D (Sus scrofa, UniProt O46658); assay: Incubation with inhibitors: DXM-O-demethylation in porcine hepatic microsomes; format: in vitro ADME, conventional pig; settings: DXM 10 µM; inhibitors SFZ 0.5, α-NFV 0.1 (1 µM), QND 0.1, KET 0.3, DDC 20, 8-MPS 1 µM; mean (SD) of 3
# T2 construct: from tissue; host or cells: pig liver microsomes
# T2 sequence (O46658 1-500): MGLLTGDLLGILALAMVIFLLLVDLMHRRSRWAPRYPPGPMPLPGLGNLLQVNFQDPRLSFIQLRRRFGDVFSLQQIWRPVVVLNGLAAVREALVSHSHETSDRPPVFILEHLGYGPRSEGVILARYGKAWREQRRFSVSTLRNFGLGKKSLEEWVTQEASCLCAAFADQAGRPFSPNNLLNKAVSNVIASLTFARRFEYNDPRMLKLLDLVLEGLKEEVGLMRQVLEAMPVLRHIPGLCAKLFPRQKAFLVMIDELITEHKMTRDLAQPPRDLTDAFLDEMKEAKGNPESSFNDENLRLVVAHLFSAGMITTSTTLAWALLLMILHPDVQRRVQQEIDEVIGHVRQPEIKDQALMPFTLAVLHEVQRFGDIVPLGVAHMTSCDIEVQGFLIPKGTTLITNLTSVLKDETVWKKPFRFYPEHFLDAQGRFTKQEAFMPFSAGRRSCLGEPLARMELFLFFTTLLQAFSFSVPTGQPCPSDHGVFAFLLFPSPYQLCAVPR
# Method: as §1
# CYP2C [6] = settings: TB 200 µM; inhibitors SFZ 0.5, α-NFV 0.1 (1 µM), QND 0.1, KET 0.3, DDC 20, 8-MPS 1 µM; mean (SD) of 3
# Method: To assess the selectivity of the probes, incubation with human specific CYP450 inhibitors was performed. […] All incubations were performed in triplicate. Fourth, typical inhibitors for each of the reactions were included at previously reported Ki values[43],[64].
compound,measurement,setting,value
"O=c1ccc2ccccc2o1 [CM, coumarin]",CM-hydroxylase activity in the intestine,"[1]; duodenum, jejunum, ileum",No CM-hydroxylase activity could be detected
same,Enzyme involvement: High affinity,porcine CYP450,CYP2A19
same,"Pearson's correlation coefficient, CM activity vs hepatic CYP2A19 abundance",[2]; level 3 (CM 2.00 µM),0.62
same,"Pearson's correlation coefficient, CM activity vs hepatic CYP2A19 abundance",[2]; level 4 (CM 5.00 µM),0.66*
same,"Pearson's correlation coefficient, CM activity vs hepatic CYP2A19 abundance",[2]; level 5 (CM 20.0 µM),0.67*
same,"Pearson's correlation coefficient, CM activity vs hepatic CYP2A19 abundance",[2]; level 6 (CM 100 µM),0.66*
"CCCCNC(=O)NS(=O)(=O)c1ccc(C)cc1 [TB, tolbutamide]","log_Km, male",CYP2C [3],"3,0641"
same,"log_Km, female",CYP2C [4],"3,3239"
same,Vmax in intestinal microsomes as % of the hepatic Vmax,[1]; intestinal versus hepatic microsomes,2%
same,Enzyme involvement: Low affinity,porcine CYP450,"CYP2C, CYP3A"
same,Km at 10 min,[5],1410 µM
same,"Pearson's correlation coefficient, TB activity vs hepatic CYP2C33 abundance",[2]; level 1 (TB 5.00 µM),0.53
same,"Pearson's correlation coefficient, TB activity vs hepatic CYP2C49 abundance",[2]; level 1 (TB 5.00 µM),0.64*
same,"Pearson's correlation coefficient, TB activity vs hepatic CYP2C33 abundance",[2]; level 2 (TB 10.0 µM),0.55
same,"Pearson's correlation coefficient, TB activity vs hepatic CYP2C49 abundance",[2]; level 2 (TB 10.0 µM),0.65*
same,"Pearson's correlation coefficient, TB activity vs hepatic CYP2C33 abundance",[2]; level 3 (TB 50.0 µM),0.62*
same,"Pearson's correlation coefficient, TB activity vs hepatic CYP2C49 abundance",[2]; level 3 (TB 50.0 µM),0.68*
same,"Pearson's correlation coefficient, TB activity vs hepatic CYP2C33 abundance",[2]; level 4 (TB 100 µM),0.62*
same,"Pearson's correlation coefficient, TB activity vs hepatic CYP2C49 abundance",[2]; level 4 (TB 100 µM),0.71*
same,"Pearson's correlation coefficient, TB activity vs hepatic CYP2C33 abundance",[2]; level 5 (TB 200 µM),0.62*
same,"Pearson's correlation coefficient, TB activity vs hepatic CYP2C49 abundance",[2]; level 5 (TB 200 µM),0.69*
same,"Pearson's correlation coefficient, TB activity vs hepatic CYP2C33 abundance",[2]; level 6 (TB 400 µM),0.61
same,"Pearson's correlation coefficient, TB activity vs hepatic CYP2C49 abundance",[2]; level 6 (TB 400 µM),0.72*
"Nc1ccc(S(=O)(=O)Nc2ccnn2-c2ccccc2)cc1 [SFZ, sulphaphenazole]",Ki,CYP2C9/19,120 to 700 nM
O=c1cc(-c2ccccc2)oc2c1ccc1ccccc12 [α-naphthoflavone],"Ratio of residual activity (substrate + inhibitor versus substrate only), CYP2E CZ","CYP2E; CZ 50 µM, inhibitors SFZ 0.5, α-NFV 0.1 (1 µM), QND 0.1, KET 0.3, DDC 20, 8-MPS 1 µM, mean (SD) of 3",1.06 (0.057)
same,Inhibition of CZ-hydroxylation by inhibitor,CYP2E; porcine hepatic microsomes,did not inhibit
same,"Ratio of residual activity (substrate + inhibitor versus substrate only), CYP2A CM","CYP2A; CM 1 µM, inhibitors SFZ 0.5, α-NFV 0.1 (1 µM), QND 0.1, KET 0.3, DDC 20, 8-MPS 1 µM, mean (SD) of 3",0.94 (0.131)
same,inhibition at 1 µM,"CYP2A; pig, porcine hepatic microsomes, probe coumarin 1 µM (CM-hydroxylation), inhibitor 1 µM, read-out: Maximal inhibition of other reactions (CM)",4%
same,Inhibition of CM-hydroxylation by inhibitor,CYP2A; porcine hepatic microsomes,5%
same,"Ratio of residual activity (substrate + inhibitor versus substrate only), CYP3A MDZ",CYP3A,1.08 (0.048)
same,"Ratio of residual activity (substrate + inhibitor versus substrate only), CYP1A PH","CYP1A; PH 20 µM, inhibitors SFZ 0.5, α-NFV 0.1 (1 µM), QND 0.1, KET 0.3, DDC 20, 8-MPS 1 µM, mean (SD) of 3",0.76 (0.011)
same,"PH-O-deethylation (CYP1A2) activity, % of the control value",CYP1A; inhibitor increased to 1 µM,76%
same,inhibition at 0.1 µM,"CYP1A; pig, probe phenacetin 20 µM (PH-O-deethylation), porcine hepatic microsomes, read-out: Inhibition of PH-O-deethylation by inhibitor",24%
same,"Ratio of residual activity (substrate + inhibitor versus substrate only), CYP2D DXM",CYP2D,1.02 (0.143)
same,"Ratio of residual activity (substrate + inhibitor versus substrate only), CYP2C TB",CYP2C [6],1.13 (0.099)
